In US20050221501A1, “Dissolution method” (priority 2003, published 2005):

Key:
[1] = pH-dependent aqueous solubility of the Agent; assay type: physicochemical; details: free-base form
[2] = Biopharmaceutics Classification System (BCS) classification; assay type: physicochemical
Description: Under the BCS system Class II compounds are sparingly soluble with high permeability.

[3] = aqueous dissolution medium containing 4% sodium lauryl sulfate, in 60 minutes; cited from earlier work

Compound | solubility ([1]; above pH 7) | ml of aqueous solvent required to dissolve 1 g of Agent ([1]; pH 6) [mL] | BCS class [2] | % dissolution [3]
COc1cc2ncnc(Nc3ccc(F)c(Cl)c3)c2cc1OCCCN1CCOCC1 [Agent, 4-(3′-chloro-4′-fluoroanilino)-7-methoxy-6-(3-morpholinopropoxy)quinazoline] | very low solubility | ≥ 10000 | Class II | –
COC1=CC(=O)C[C@@H](C)[C@]12Oc1c(Cl)c(OC)cc(OC)c1C2=O [Griseofluvin] | – | – | – | at least 75%
